Assay results taken from ChEMBL document CHEMBL1201862, “PubChem BioAssay data set” (2004).
Calls of active or inactive are those of the source.

How the values were obtained:
[1] = target: Peroxisome proliferator-activated receptor gamma/Nuclear receptor coactivator 1 (Homo sapiens, UniProt P37231); test: (§1) TR-FRET dose response biochemical High Throughput Screening assay for agonists of the steroid receptor coactivator 1 (SRC-1) recruitment by the peroxisome proliferator-activated receptor gamma (PPAR gamma): non-selective agonists. [Related pubchem assays (depositor defined):AID1300, AID1808, AID504735, AID631]; assay type: protein assay
[2] = target: Peroxisome proliferator-activated receptor gamma/Nuclear receptor coactivator 3 (Homo sapiens, UniProt P37231); test: as §1, with “3 (SRC-3)” for “1 (SRC-1)”, “assays: 1301 (Confirmation screen.), 1048 (Primary screen.)]” for “assays (depositor defined):AID1300, AID1808, AID504735, AID631]”; assay type: functional
[3] = target: Peroxisome proliferator-activated receptor gamma/Nuclear receptor coactivator 2 (Homo sapiens, UniProt P37231); test: TR-FRET dose response biochemical High Throughput Screening assay for agonists of the steroid receptor coactivator 2 (SRC-2) recruitment by the peroxisome proliferator-activated receptor gamma (PPAR gamma): non-selective agonists. [Related pubchem assays: 1297, 1032 ]; assay type: functional
[4] = target: T1, Replicative DNA helicase DnaB (Mycobacterium tuberculosis, UniProt P9WMR3); test: DnaB intein splicing inhibitors, dose response, biochemical, cell-free fluorescence (AID 449749); assay type: functional
T1 sequence (P9WMR3 whole entry): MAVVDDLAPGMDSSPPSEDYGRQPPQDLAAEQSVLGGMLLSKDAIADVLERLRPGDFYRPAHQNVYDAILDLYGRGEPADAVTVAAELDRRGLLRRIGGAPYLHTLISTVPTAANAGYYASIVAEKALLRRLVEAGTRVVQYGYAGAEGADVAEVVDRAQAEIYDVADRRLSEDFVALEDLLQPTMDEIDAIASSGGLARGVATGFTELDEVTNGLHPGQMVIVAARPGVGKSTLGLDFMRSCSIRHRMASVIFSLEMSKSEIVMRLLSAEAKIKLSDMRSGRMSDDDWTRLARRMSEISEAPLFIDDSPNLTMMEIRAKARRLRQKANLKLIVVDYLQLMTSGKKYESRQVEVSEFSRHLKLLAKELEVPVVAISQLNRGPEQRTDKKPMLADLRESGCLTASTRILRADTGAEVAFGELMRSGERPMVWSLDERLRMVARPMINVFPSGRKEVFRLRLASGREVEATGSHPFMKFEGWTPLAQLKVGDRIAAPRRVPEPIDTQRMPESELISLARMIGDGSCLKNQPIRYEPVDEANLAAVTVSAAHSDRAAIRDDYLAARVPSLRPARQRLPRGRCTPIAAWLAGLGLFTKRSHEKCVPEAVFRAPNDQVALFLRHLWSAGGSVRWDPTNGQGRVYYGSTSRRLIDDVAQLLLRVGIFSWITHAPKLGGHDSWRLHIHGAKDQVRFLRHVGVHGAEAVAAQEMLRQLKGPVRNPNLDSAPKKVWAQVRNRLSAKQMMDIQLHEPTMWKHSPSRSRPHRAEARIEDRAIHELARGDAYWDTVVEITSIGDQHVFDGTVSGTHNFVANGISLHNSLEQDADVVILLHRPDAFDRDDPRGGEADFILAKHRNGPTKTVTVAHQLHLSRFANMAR

Protein RecA = target: T2, Protein RecA (Mycobacterium tuberculosis, UniProt P9WHJ3); test: Fluorescence Cell-Free Homogeneous Dose Retest to Identify Inhibitors of RecA-Intein Splicing Activity. [Related pubchem assays (depositor defined):AID2097, AID2223, AID489010, AID492950]; assay type: functional
T2 sequence (P9WHJ3 whole entry): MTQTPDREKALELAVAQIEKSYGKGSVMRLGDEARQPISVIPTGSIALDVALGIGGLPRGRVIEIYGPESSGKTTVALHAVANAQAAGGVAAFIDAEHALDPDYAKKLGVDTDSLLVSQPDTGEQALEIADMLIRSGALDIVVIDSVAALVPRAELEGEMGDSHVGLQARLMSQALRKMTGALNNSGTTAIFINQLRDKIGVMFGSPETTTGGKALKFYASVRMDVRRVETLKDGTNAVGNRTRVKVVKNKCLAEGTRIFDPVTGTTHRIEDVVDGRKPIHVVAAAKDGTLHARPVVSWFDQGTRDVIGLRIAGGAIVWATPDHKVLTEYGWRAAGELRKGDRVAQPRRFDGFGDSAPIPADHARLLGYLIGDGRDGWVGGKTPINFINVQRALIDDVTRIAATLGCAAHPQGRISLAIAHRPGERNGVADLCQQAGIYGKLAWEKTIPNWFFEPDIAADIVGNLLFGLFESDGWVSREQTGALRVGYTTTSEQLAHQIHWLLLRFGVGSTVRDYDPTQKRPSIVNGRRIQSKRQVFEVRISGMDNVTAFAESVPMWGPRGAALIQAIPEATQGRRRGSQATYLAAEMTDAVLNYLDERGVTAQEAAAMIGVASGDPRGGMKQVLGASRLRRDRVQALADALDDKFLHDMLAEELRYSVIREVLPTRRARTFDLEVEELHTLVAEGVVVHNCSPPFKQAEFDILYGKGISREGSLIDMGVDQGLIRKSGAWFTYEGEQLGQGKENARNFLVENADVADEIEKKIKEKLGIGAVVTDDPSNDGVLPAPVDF

[5] = target: T3, Heat shock factor protein 1 (Mus musculus, UniProt P38532); test: enhancement of HSF1-driven luciferase signal – cell-based, NIH3T3, luminescence, dose retest, confirmation (AID 435004); assay type: functional;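 note: stress induced by proteasome inhibitor MG132 added 30 min after compound; luciferase reporter driven by HSF1 response element in NIH3T3 cells; actives raise luminescence as potentiators of the MG132 stress response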
T3 sequence (P38532 whole entry): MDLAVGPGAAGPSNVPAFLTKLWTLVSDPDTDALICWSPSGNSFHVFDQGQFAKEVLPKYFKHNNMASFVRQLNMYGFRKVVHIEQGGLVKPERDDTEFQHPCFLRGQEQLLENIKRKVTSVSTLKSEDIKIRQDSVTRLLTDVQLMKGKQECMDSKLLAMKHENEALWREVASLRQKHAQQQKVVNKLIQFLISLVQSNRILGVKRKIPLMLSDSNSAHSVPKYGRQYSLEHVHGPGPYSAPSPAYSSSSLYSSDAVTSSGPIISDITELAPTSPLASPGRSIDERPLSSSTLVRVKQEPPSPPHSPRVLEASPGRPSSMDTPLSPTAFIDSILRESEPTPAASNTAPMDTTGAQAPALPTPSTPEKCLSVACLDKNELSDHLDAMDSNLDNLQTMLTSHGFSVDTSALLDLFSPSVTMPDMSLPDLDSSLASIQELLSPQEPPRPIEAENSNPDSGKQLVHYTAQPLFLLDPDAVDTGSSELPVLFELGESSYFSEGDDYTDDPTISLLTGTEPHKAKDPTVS

[6] = target: T4, Corticotropin-releasing factor receptor 2/Corticotropin-releasing factor-binding protein (Homo sapiens, UniProt P24387+Q13324); test: Dose Response confirmation of uHTS hits for small molecule antagonists of the CRF-binding protein and CRF-R2 receptor complex.; assay type: functional; settings: read-out: IC50_Mean
T4 sequence (Q13324 whole entry): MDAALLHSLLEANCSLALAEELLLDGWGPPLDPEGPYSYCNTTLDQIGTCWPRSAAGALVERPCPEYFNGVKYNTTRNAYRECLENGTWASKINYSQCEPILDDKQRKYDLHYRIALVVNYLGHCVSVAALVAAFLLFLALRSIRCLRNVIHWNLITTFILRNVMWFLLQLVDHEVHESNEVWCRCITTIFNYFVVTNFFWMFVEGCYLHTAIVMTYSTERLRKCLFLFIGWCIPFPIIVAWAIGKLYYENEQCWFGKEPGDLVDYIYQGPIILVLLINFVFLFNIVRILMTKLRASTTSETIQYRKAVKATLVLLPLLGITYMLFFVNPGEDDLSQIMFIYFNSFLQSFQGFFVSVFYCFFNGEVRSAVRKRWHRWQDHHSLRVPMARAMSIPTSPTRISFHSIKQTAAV
T4 sequence (P24387 whole entry): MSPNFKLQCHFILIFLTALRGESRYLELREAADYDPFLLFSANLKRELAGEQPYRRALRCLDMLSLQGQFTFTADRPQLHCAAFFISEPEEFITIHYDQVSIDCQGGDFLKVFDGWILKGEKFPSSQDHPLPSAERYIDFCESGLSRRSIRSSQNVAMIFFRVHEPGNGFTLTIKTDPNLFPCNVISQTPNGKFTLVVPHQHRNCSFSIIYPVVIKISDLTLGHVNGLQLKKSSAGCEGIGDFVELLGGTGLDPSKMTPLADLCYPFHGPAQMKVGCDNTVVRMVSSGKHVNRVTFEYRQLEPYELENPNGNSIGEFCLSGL

[7] = target: T4, Corticotropin-releasing factor receptor 2/Corticotropin-releasing factor-binding protein; test: activators of CRF receptor 2 with binding protein – uHTS hits, confirmation (AID 602473); assay type: functional; settings: read-out: EC50_Mean
BJ [8] = test: BJ-TERT fibroblast viability loss – cell-based, RAS-independent, luminescence, dose response (AID 1933); assay type: functional; settings: Homo sapiens
BJ [9] = test: cells; assay type: functional, cell-based; settings: Homo sapiens
BJ [10] = test: BJ-TERT-LT-ST fibroblast viability loss – cell-based, RAS-independent, luminescence, dose response (AID 1935); assay type: functional; settings: Homo sapiens;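 note: BJ fibroblasts immortalized with TERT plus LT and ST oncogenes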
[11] = DRD fibroblast viability loss – cell-based, non-viral oncogenic, luminescence, dose response (AID 1934); assay type: functional; settings: Homo sapiens
[12] = target: T5, Microphthalmia-associated transcription factor (Homo sapiens, UniProt O75030); test: reducers of TRPM1 reporter luminescence, concentration series – cell-based, SK-MEL-5, cherry-picked, set 3, MITF inhibitor project, dose response (AID 493073); assay type: functional;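 note: SK-MEL-5 melanoma cells with luciferase driven by the MITF target TRPM1 promoter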
T5 sequence (O75030 whole entry): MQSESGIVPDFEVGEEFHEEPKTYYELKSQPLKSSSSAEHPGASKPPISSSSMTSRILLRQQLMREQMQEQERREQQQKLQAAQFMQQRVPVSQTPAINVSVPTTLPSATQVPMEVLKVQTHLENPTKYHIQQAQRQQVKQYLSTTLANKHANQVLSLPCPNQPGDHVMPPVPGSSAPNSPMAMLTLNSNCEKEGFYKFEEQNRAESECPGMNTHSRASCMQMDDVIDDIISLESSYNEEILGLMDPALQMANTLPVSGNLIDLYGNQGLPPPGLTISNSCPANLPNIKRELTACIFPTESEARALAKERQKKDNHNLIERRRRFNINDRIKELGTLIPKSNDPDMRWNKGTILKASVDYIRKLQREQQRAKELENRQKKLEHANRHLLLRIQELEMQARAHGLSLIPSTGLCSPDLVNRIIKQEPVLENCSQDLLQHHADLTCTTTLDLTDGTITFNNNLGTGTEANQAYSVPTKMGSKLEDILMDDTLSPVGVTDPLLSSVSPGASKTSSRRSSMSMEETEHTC

A-375 = test: MITF: Counter assay: A375 proliferation Measured in Cell-Based System Using Plate Reader - 2084-03_Inhibitor_Dose_DryPowder_Activity. [Related pubchem assays (depositor defined):AID488944]; assay type: functional; settings: Homo sapiens
[13] = decrease of insulin promoter-GFP reporter – imaging, high-content screening, mouse beta cells (AID 1628); assay type: functional; settings: MIN6
[14] = MIN6 cell viability loss – mouse insulinoma, cytotoxicity control, dose response (AID 2122); assay type: functional;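 note: confirmatory high-throughput counterscreen run to flag cytotoxic compounds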
[15] = target: T6, High affinity choline transporter 1 (Homo sapiens, UniProt Q9GZV3); test: human choline transporter blockers, potency – cell-based, 5-point CRC, membrane potential dye, dose response (AID 504840); assay type: functional
T6 sequence (Q9GZV3 whole entry): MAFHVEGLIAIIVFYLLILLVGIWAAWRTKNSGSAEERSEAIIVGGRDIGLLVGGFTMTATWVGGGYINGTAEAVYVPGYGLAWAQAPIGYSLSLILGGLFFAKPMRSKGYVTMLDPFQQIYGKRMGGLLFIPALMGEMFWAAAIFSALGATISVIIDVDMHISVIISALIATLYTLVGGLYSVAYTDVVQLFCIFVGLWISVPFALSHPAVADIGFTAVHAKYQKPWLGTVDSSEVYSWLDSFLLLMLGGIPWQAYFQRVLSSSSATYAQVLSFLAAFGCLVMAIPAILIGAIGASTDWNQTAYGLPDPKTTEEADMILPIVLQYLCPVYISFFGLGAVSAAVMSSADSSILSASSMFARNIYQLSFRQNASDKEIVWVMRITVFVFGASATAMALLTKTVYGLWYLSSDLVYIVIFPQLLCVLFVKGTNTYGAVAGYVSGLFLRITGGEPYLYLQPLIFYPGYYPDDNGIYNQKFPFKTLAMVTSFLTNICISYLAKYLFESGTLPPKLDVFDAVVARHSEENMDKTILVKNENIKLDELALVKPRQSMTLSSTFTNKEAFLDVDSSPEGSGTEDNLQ

Sequence of Peroxisome proliferator-activated receptor gamma/Nuclear receptor coactivator 3 (P37231 whole entry): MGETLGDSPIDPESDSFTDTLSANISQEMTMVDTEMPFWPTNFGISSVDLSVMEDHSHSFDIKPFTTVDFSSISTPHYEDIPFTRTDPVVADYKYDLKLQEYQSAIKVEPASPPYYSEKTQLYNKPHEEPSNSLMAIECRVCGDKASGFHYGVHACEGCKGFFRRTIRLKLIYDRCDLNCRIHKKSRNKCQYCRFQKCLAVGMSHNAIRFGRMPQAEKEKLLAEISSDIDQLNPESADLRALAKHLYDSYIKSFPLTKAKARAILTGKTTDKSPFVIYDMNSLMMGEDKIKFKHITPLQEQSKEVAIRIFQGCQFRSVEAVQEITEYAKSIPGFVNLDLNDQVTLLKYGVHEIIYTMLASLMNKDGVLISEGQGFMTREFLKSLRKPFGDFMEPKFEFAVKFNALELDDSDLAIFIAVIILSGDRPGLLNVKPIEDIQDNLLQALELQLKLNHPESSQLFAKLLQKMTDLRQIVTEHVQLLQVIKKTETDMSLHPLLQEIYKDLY
Sequence of Peroxisome proliferator-activated receptor gamma/Nuclear receptor coactivator 3 (Q9Y6Q9 whole entry, further chain): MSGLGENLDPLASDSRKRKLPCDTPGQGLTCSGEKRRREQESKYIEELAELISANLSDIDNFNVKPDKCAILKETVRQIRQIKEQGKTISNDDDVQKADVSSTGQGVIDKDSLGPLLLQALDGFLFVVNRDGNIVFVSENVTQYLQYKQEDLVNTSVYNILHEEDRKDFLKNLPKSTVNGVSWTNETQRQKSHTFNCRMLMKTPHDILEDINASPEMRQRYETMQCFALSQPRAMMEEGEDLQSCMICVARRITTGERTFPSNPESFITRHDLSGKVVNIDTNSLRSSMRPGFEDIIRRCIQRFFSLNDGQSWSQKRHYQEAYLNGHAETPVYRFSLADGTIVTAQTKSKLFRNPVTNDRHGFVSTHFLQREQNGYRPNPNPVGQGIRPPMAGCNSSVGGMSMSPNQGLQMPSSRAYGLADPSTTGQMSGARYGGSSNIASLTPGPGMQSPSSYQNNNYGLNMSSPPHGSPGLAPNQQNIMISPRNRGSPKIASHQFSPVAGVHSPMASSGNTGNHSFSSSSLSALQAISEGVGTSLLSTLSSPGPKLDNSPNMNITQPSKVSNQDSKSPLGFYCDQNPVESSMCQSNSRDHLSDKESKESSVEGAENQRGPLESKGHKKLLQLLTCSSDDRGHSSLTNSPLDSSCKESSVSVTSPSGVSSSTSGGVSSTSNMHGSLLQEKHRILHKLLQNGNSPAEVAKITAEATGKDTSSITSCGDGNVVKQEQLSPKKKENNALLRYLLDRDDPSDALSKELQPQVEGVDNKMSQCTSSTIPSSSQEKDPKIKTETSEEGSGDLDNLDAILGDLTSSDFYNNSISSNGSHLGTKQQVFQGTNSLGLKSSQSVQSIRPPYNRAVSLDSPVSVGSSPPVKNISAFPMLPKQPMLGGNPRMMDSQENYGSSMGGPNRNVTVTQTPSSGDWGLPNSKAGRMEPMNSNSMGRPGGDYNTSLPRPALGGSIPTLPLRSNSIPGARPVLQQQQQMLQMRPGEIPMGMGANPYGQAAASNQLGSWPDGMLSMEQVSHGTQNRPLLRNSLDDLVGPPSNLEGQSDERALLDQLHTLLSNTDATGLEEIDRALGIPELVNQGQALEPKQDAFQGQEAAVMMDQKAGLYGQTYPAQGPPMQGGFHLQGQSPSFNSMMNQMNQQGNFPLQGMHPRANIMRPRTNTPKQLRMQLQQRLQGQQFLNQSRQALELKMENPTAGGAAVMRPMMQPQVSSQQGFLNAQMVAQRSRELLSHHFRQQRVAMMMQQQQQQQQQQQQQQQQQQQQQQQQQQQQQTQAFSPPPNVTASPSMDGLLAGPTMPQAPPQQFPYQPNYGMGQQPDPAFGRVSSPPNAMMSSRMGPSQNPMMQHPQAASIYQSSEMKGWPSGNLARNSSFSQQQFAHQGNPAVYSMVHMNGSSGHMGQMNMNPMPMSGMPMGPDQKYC
Sequence of Peroxisome proliferator-activated receptor gamma/Nuclear receptor coactivator 2 (P37231 whole entry): as the sequence (P37231 whole entry) above
Sequence of Peroxisome proliferator-activated receptor gamma/Nuclear receptor coactivator 2 (Q15596 whole entry, further chain): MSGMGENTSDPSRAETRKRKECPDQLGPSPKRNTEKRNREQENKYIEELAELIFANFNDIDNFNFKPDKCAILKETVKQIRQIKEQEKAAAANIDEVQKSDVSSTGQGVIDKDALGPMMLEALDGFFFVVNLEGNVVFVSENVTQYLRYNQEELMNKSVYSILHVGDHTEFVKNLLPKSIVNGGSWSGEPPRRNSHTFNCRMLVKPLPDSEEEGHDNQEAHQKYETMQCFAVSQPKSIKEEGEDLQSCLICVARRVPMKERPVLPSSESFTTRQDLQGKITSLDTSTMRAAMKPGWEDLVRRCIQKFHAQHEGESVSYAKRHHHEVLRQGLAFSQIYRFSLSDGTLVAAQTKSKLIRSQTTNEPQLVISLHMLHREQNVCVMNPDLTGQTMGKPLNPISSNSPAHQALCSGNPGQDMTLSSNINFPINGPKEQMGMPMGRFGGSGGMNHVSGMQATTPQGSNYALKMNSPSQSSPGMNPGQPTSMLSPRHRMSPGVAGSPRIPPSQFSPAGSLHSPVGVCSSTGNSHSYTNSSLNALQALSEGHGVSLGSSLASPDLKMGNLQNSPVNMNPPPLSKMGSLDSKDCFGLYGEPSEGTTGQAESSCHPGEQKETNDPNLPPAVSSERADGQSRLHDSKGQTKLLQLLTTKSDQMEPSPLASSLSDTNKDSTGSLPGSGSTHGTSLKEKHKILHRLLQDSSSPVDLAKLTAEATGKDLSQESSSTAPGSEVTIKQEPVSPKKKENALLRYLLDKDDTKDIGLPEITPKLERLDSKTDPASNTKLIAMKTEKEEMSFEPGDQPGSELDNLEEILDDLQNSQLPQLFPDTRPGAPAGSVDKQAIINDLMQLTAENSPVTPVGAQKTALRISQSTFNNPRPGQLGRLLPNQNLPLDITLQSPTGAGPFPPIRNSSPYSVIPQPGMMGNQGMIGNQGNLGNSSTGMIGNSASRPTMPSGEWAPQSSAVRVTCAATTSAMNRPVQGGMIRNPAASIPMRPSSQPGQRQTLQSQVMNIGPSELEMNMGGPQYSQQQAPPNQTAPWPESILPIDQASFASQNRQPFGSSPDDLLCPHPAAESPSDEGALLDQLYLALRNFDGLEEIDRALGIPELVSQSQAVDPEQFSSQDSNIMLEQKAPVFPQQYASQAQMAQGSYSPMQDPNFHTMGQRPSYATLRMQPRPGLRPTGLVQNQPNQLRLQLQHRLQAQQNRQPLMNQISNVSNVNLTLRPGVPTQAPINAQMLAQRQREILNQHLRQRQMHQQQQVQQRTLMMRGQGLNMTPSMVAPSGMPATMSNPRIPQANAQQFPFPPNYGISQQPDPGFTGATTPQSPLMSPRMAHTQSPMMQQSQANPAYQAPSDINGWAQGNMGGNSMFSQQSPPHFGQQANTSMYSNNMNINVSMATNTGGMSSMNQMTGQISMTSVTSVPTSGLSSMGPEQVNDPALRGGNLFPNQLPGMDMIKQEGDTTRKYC

SMILES: O=C(CSc1c2c(nc3cc(Cl)ccc13)CCCC2)NCc1ccco1
- EC50 [1]: > 79.4 µM (inactive)
- EC50 [2]: > 79.4 µM (not active)
- EC50 [3]: > 79.4 µM (not active)
- AC50 [4]: 27.9 µM (active)
- EC50 (Protein RecA): 7.14 µM (active)

SMILES: CC(=O)C1=C(O)C(=O)N(c2nccs2)C1c1ccccc1 (configuration not stated)
- EC50 [1]: 86.4 µM (inactive)
- EC50 [2]: > 79.4 µM (not active)
- EC50 [3]: 35.4 µM (not active)
- EC50 [5]: > 260 µM (inactive)
- IC50 [6]: > 47.1 µM (inactive)
- EC50 [7]: > 53 µM (inactive)

SMILES: COc1ccc(N(Cc2cc(O)nc3ccccc23)C(=O)CCl)cc1
- EC50 (BJ [8]): 1.95 µM (active)
- EC50 (BJ [9]): 5.45 µM (inconclusive)
- EC50 (BJ [10]): 4.68 µM (active)
- EC50 [11]: 4.96 µM (inconclusive)
- AC50 [12]: 10.9 µM (active)
- AC50 [4]: 10.3 µM (active)
- EC50 (Protein RecA): 1.59 µM (active)
- AC50 (A-375): 27.1 µM (active)

SMILES: CC1(C)CC2CC(C)(CN2c2ncnc3ccccc23)C1 (configuration not stated)
- IC50 [13]: 1.7 µM (active)
- IC50 [14]: 1.16 µM (active)
- IC50 [15]: 6.74 µM (active)
